The values that follow come from US8952183B2, “Inhibitors of sialidase or sialidase-like enzymes” (priority 2009, dated 2015).

Experiment [1] concerns the target influenza A neuraminidase (N1) (Influenza A virus, UniProt P03468). The class given is biochemical.
The subject of experiment [2] is bacterial or mammalian neuraminidases. The following applies: Colman, 1999; cited from earlier work.
In the next experiment the test system is influenza neuraminidases. The conditions noted are these: Colman, 1999; cited from earlier work.

Chain of influenza A neuraminidase (N1) (P03468 whole entry): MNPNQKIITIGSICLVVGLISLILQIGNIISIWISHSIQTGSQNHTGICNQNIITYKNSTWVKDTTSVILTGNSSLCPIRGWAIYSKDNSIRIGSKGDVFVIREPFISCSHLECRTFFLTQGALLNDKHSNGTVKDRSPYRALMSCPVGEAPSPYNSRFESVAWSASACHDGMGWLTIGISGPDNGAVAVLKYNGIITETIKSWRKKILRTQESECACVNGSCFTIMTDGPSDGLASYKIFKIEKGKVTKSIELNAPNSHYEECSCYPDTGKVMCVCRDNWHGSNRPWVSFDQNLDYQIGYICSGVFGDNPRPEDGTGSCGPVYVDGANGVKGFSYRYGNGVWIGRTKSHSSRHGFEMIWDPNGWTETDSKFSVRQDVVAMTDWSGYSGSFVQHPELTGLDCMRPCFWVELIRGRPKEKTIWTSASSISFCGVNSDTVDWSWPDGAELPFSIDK

With `CC(=N)N[C@H]1[C@H]([C@H](NC(C)=O)[C@@H](C)O)OC(C(=O)O)=C[C@@H]1O` [Compound 8, 5-acetamidino-7-acetamido-3,5,7,9-tetradeoxy-D-glycero-D-galacto-non-2-enonate], the “potency as inhibitor compared with ATA” value in experiment [1] is given as “not as potent an inhibitor as Aurintricarboxylic acid (ATA)”.

As to `CC(=O)N[C@H]1[C@H]([C@H](O)[C@H](O)CO)OC(C(=O)O)=C[C@@H]1N=C(N)N` [zanamivir], the “potency against bacterial or mammalian neuraminidases” value in experiment [2] is reported as “much less potent”. For the same compound, the “potency against influenza neuraminidases” value in the experiment with influenza neuraminidases is recorded as “very potent”.
